# Source: patent publication US20200268827A1, “COMPOSITION FOR PREVENTION, IMPROVEMENT OR TREATMENT OF OSTEOARTHRITIS COMPRISING ALPINIA OXYPHYLLA EXTRACT AS EFFECTIVE COMPONENT” (KOREA INSTITUTE OF ORIENTAL MEDICINE, priority 2017, published 2020)
# Assays:
# Assay type in all cases: in vivo, SD rat
# [1] = test system: MIA (monosodium iodoacetate)-induced osteoarthritis; experiment: Bodyweight loading of hind limb in animal model of MIA-induced osteoarthritis (incapacitance tester); settings: compared to MIA group; oral once a day for 21 days, measured every 7 days; FIG. 1
# Experimental: To determine the effect of an extract of Alpinia oxyphylla, which has been prepared in the above Example 1, on bodyweight loading in an animal model of MIA-induced osteoarthritis, MIA as an osteoarthritis-inducing material (diluted to 60 mg/ml with 0.9% physiological saline) was administered in an amount of 50 μl to an articular cavity of a right hind limb of 7-week old SD rat to induce osteoarthritis. After that, the animal was orally administered with an extract of Alpinia oxyphylla (150 or 300 mg/kg) once a day for 21 days, while the percentage of bodyweight loading was measured every 7 days. As a positive control group, indomethacin (1 mg/kg) was used.
# The bodyweight loading on hind limb was measured by using a paw weight tester (Incapacitance tester, Linton instrument Co., UK, Ser No. 01/45/25). In a tester holder, the rat with induced osteoarthritis tends to stand on a normal paw which has not been administered with MIA due to the pain occurring in the other paw, and thus balance between the weights of two paws was not maintained so that the weight of paw administered with MIA is measured to be relatively lighter than the weight of normal paw. […] Then, by using the weight of paw which has been measured accordingly, percentage of bodyweight loading (%) was calculated based on the following Formula 1. […]
# IL-1β = experiment: mRNA expression of inflammatory factor in joint with induced osteoarthritis by PCR; settings: compared to MIA-induced increase, FIG. 2
# Source text: (§1) From a joint with induced osteoarthritis, mRNA was extracted and the expression of an inflammatory factor (IL-1β, IL-6, TNF-α and COX-2) and a cartilage degeneration-inducing factor (MMP-9) was examined by PCR.
# IL-6 = experiment: as above; settings: compared to MIA-induced increase, FIG. 2
# Source text: as §1
# COX-2 = experiment: as above; settings: compared to MIA-induced increase, FIG. 2
# Source text: as §1
# TNF-α = experiment: as above; settings: compared to MIA-induced increase, FIG. 2
# Source text: as §1
# MMP-9 = experiment: mRNA expression of cartilage degeneration-inducing factor in joint with induced osteoarthritis by PCR; settings: compared to MIA-induced increase, FIG. 2
# Source text: as §1
compound,measurement,setting,value
COc1ccc2c(c1)c(CC(=O)O)c(C)n2C(=O)c1ccc(Cl)cc1 [indomethacin],percentage of bodyweight loading (%) of hind limb,[1],higher than the MIA-induced osteoarthritis group
same,expression of IL-1β (inflammatory factor),IL-1β,decreased in significant sense
same,expression of IL-6 (inflammatory factor),IL-6,decreased in significant sense
same,expression of COX-2 (inflammatory factor),COX-2,decreased in significant sense
same,expression of TNF-α (inflammatory factor),TNF-α,decreased in significant sense
same,expression of MMP-9 (cartilage degeneration-inducing factor),MMP-9,decreased in significant sense
